The text below walks through data of PubChem BioAssay AID434987 (Southern Research Specialized Biocontainment Screening …, 2010).

Activity calls are given as the source filed them. The rule behind the calls is not given here.

The experiment deals with M. tuberculosis H37Rv growth inhibition with meropenem. Put plainly: dose response, H37Rv, with and without meropenem (AID 434987).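 Note: growth over 7 days at 37 °C before Alamar Blue read on day 9.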
Setting [1] is: M. tuberculosis H37Rv growth inhibition, measured here: IC50 without meropenem.
The mark [2] stands for this setting: M. tuberculosis H37Rv growth inhibition, measured here: IC90 without meropenem.
Setting [3] is: measured here: IC90 with meropenem.

Consider `COC(=O)c1sc(-c2ccc(C(C)(C)C)cc2)cc1NC(=O)CCC(=O)O`, for which the IC50 – broadly, the midpoint of a concentration-inhibition curve – is 1.37 µM. Under setting [1], this molecule showed an IC50 of 23.8 µM. The IC90 (in general, the concentration at which the effect reaches the 90% level) under setting [2] was over 100 µM. The IC90 under setting [3] turned out to be 28.7 µM.

As for `Cc1cc(C)n(-c2nc3ccccc3c(=O)n2OCC(=O)N(C)C)n1`, the 50% inhibitory concentration (IC50) was 7.74 µM. Moreover, the IC50 under setting [1] amounted to 79.2 µM. Under setting [2], this molecule registered an IC90 of over 100 µM. The molecule also displayed an IC90 under setting [3] of 23.3 µM.

On to `O=C(N/N=C/c1cc([N+](=O)[O-])ccc1O)C1CC1`, for which the IC50 was 4.14 µM. The same molecule gave an IC50 under setting [1] of 58.9 µM. Besides, the 90% effect concentration (IC90) under setting [2] was over 100 µM. The same molecule had an IC90 under setting [3] of over 100 µM.

For the molecule `CN1C/C(=N\S(=O)(=O)c2ccccc2)N(C)C1=O`, the IC50 was 13 µM (inactive). Under setting [1], this molecule came in with a concentration for half-maximal inhibition (IC50) of 23.6 µM. Under setting [2], the IC90 amounted to 46.7 µM. This molecule showed an IC90 under setting [3] of 33.7 µM.

Regarding `O=C(CSc1nnc(-c2cnccn2)n1Cc1ccco1)Nc1ccc(Br)cc1`, the IC50 was 44.2 µM (inactive). The same molecule yielded a half-inhibitory concentration (IC50) under setting [1] of over 100 µM. This molecule had an IC90 under setting [2] of over 100 µM. The IC90 under setting [3] was over 100 µM.

Turning to `C/C(=N\NC(N)=S)c1ccc(-n2ccnc2)cc1`, the concentration for half-maximal inhibition (IC50) was 6.58 µM. Under setting [1], the IC50 was over 100 µM. This molecule also came in with an IC90 under setting [2] of over 100 µM. In addition, the 90% effect concentration (IC90) under setting [3] was over 100 µM.

In the case of `COc1cc(/C=C/C(=O)OCC(=O)Nc2ccc(Cl)cn2)ccc1O`, the concentration for half-maximal inhibition (IC50) was 39.4 µM. Under setting [1], this molecule gave an IC50 of over 100 µM. The concentration for an effect of 90% (IC90) under setting [2] is over 100 µM. Under setting [3], this molecule yielded an IC90 of over 100 µM.

As to `O=C(Cc1cccc2ccccc12)N/N=C/c1ccc(O)c([N+](=O)[O-])c1`, the IC50 is 17.3 µM (inactive). The molecule further gave an IC50 under setting [1] of 27.2 µM. This molecule also came in with an IC90 under setting [2] of 47.2 µM. The 90% effect concentration (IC90) under setting [3] stood at 31.6 µM.

With `O=C1COc2ccc(C(=O)/C=C/c3ccccc3)cc2N1`, the IC50 was 9.75 µM. Moreover, the half-inhibitory concentration (IC50) under setting [1] came to 25.6 µM. Besides, the concentration for an effect of 90% (IC90) under setting [2] is over 50 µM. Besides, the 90% effect concentration (IC90) under setting [3] was found to be 12.2 µM.

Take `CC(C)CC(=O)NC(=S)Nc1ccc(N2CCN(C(=O)c3cccs3)CC2)cc1`: the IC50 is > 100 µM (inactive). Also, the IC50 under setting [1] was over 100 µM. The same molecule yielded an IC90 under setting [2] of over 100 µM. Under setting [3], the concentration for an effect of 90% (IC90) was over 100 µM.

Turning to `Cc1cccc2nc(COc3ccc4ccccc4c3Br)cn12`, the IC50 was 49 µM (inactive). This molecule gave an IC50 under setting [1] of 47.5 µM. Further, the IC90 under setting [2] was over 100 µM. For the same molecule, the IC90 under setting [3] is over 100 µM.

Turning to `Nc1cc(=O)nc(SCc2ccccc2)n1Cc1ccco1`, the IC50 is 87.3 µM (inactive). This molecule also registered a half-inhibitory concentration (IC50) under setting [1] of over 100 µM. The molecule also registered a concentration for an effect of 90% (IC90) under setting [2] of over 100 µM. This molecule returned an IC90 under setting [3] of over 100 µM.

For `CC(=O)c1c(OC(=O)c2cccc(Cl)c2)c2ccccc2n1C`, the IC50 was 29.5 µM (inactive). Besides, the IC50 under setting [1] came to 68.6 µM. The molecule also had an IC90 under setting [2] of over 100 µM. Further, under setting [3], the concentration for an effect of 90% (IC90) was over 100 µM.

Consider `CN1CCN(S(=O)(=O)c2ccc(NC(=O)c3ccc(Br)s3)cc2)CC1`, for which the IC50 was 74.7 µM (inactive). Under setting [1], this molecule showed an IC50 of over 100 µM. Under setting [2], this molecule displayed a concentration for an effect of 90% (IC90) of over 100 µM. Further, the IC90 under setting [3] is over 100 µM.

Consider `CCc1nnc(NC(=O)c2ccc3nc(CC)c(CC)nc3c2)s1`, for which the IC50 is 46.6 µM (inactive). In addition, the IC50 under setting [1] is over 100 µM. The concentration for an effect of 90% (IC90) under setting [2] was over 100 µM. Moreover, under setting [3], the 90% effect concentration (IC90) was over 100 µM.

As for `O=C(O)Cc1csc(Nc2cccc(Cl)c2)n1`, the IC50 is > 100 µM (inactive). The molecule also gave a half-inhibitory concentration (IC50) under setting [1] of over 100 µM. The same molecule returned a 90% effect concentration (IC90) under setting [2] of over 100 µM. This molecule yielded an IC90 under setting [3] of over 100 µM.

On to `O=C(O)CCN1C(=O)/C(=C/c2ccc(-c3nc4ccccc4s3)o2)SC1=S`, for which the IC50 is 38.3 µM (inactive). Further, the IC50 under setting [1] was determined as 60.1 µM. Further, the IC90 under setting [2] is over 100 µM. This molecule yielded an IC90 under setting [3] of 78.4 µM.

With `NNC(=O)c1oc2nc(-c3ccco3)cc(-c3ccco3)c2c1N`, the IC50 was 13.6 µM (inactive). In addition, under setting [1], the IC50 amounted to 23.9 µM. In addition, the IC90 under setting [2] was over 100 µM. Further, under setting [3], the concentration for an effect of 90% (IC90) was over 100 µM.

Consider `NC(=S)N/N=C/c1ccc(/C=N/NC(N)=S)cc1`, for which the IC50 was 2.5 µM. The same molecule gave an IC50 under setting [1] of over 100 µM. Under setting [2], this molecule returned an IC90 of over 100 µM. Also, the concentration for an effect of 90% (IC90) under setting [3] is over 100 µM.

As for `Cc1cc(=O)n2c(-c3ccccc3C)n[nH]c2n1`, the IC50 was 51 µM (inactive). For the same molecule, the IC50 under setting [1] was determined as 62.4 µM. Under setting [2], this molecule registered a concentration for an effect of 90% (IC90) of over 100 µM. Under setting [3], this molecule returned a 90% effect concentration (IC90) of over 100 µM.

As for `CCCCCc1ccc(-c2ccc(/C=C/C(N)=O)cc2)nc1`, the IC50 is > 100 µM (inactive). For the same molecule, the half-inhibitory concentration (IC50) under setting [1] was over 100 µM. The same molecule yielded a concentration for an effect of 90% (IC90) under setting [2] of over 100 µM. The IC90 under setting [3] was over 100 µM.

On to `CCN(CC)c1ccc(NC(=O)c2cc(Cl)ccc2OC)cc1`, for which the IC50 is 24.2 µM. The same molecule gave a half-maximal inhibitory concentration (IC50) under setting [1] of over 100 µM. This molecule also registered an IC90 under setting [2] of over 100 µM. The molecule also had an IC90 under setting [3] of over 100 µM.
